# Measured values reported in patent US20120046308A1, “NOVEL ALPHA-PHENOXYBENZENEACETIC ACID DERIVATIVE AND PHARMACEUTICAL PREPARATION COMPRISING SAME” (KOWA COMPANY, LTD., priority 2009, published 2012).
# Like-named read-outs stand apart in the source and are kept apart here.
# Legend:
# [1] = biological target: T1, angiotensin II type 1 receptor (Oryctolagus cuniculus, UniProt P34976); experiment: Angiotensin II antagonistic activity in isolated rabbit blood vessels (thoracic aorta ring contraction); conditions: angiotensin II (10 nM)-induced contraction
# T1 construct: By using a specimen of isolated rabbit blood vessels; from tissue; host or cells: rabbit (New Zealand White) thoracic aorta ring
# T1 sequence (P34976 1-359): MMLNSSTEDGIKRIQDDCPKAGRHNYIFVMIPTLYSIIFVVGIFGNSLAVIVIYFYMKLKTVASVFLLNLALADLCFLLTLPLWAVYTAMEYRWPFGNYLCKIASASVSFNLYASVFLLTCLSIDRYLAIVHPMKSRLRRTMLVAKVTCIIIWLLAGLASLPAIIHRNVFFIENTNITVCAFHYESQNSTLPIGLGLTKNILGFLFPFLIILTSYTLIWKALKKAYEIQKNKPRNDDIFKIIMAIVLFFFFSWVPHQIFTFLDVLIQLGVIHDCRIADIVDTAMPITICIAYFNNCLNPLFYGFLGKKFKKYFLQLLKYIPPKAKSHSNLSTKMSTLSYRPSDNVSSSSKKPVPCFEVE
# Protocol: By using a specimen of isolated rabbit blood vessels, antagonistic activity of the compounds of the invention against angiotensin II type 1 receptor was estimated from a dose-response curve of angiotensin II-induced blood vessel contraction.
# During the measurement, the inside temperature of the magnus bath was maintained at 37° C. and the bath was continuously ventilated with a sufficient amount of mixed gas (95% O2 and 5% CO2). The angiotensin II-induced contraction was converted into a relative value (%) that is based on the angiotensin II (10 nM)-induced contraction in the absence of the compounds of each example. From the concentration-response curve obtained therefrom, 50% inhibition concentration (IC50 value) was calculated by using SAS Preclinical Package Ver5.0 (trade name, manufactured by SAS institute Japan Co., Tokyo, Japan), which is a statistical analysis program.
# human PPARγ2 [2] = biological target: T2, human PPARγ2 (Homo sapiens, UniProt P37231); experiment: PPARγ activation activity, Gal4-PPARγ2 LBD luciferase transfection assay using COS7 cells; assay type: cell-based; conditions: for EC50: 16 hours, luciferase activity relative to rosiglitazone = 100%; for Emax: COS-7, 16 h, maximum activity strength relative to the maximum activity of rosiglitazone, read-out: % MAX vs Rosiglitazone
# T2 construct: the amino acids 182 to 505 of human PPARγ2; expressed in transfected cells; host or cells: COS7 cells (African green monkey kidney)
# T2 sequence (P37231 182-505): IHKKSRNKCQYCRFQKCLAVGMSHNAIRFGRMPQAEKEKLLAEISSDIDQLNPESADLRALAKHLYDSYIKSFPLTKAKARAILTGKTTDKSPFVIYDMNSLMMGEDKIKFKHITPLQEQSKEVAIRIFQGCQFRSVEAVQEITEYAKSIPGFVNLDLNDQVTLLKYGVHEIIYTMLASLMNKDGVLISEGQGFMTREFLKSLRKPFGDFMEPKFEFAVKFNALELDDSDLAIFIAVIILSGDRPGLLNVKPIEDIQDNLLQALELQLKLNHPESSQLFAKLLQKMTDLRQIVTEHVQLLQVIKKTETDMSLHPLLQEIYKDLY
# Protocol: The agonistic activity of the compounds of the invention on PPARγ was measured based on the transfection assay using COS7 cells (DS Pharma Biomedical Co., Ltd., Osaka, Japan), which are the cell line derived from the kidney of the African green monkey. COS7 cells were cultured under 5% CO2 concentration, and DMEM medium containing 10% fetal bovine serum, glutamic acid, and antibiotics was used as a medium.
# As an expression vector, a chimera in which DNA binding domain of Gal4, which is a yeast transcription factor, and ligand binding domain of human PPARγ2 are fused, i.e., a fused product between the amino acids 1 to 147 of Gal4 transcription factor and the amino acids 182 to 505 of human PPARγ2, was used. Furthermore, as a reporter vector, a firefly luciferase containing five copies of Gal4 recognition sequence in the promoter region was used. Plasmid transfection to the cells was performed according to a method which uses jetPEI (trade name, manufactured by Funakoshi Co., Ltd., Tokyo, Japan). Furthermore, β-galactosidase expression vector was employed as an internal standard.
# After the transfection of the cells, the medium was replaced with a DMEM medium (containing 1% serum) added with the compound, and the cells were further cultured for 16 hours. After that, the luciferase activity and β-galactosidase activity in the cell lysis solution were measured.
# For the present test, dimethyl sulfoxide (DMSO) was used for dissolution and dilution of the test compounds, and during the cell treatment, the DMSO concentration in DMEM medium (containing 1% serum) was adjusted to 0.1%. As a positive compound, rosiglitazone (trade name, manufactured by ALEXIS Corporation, Switzerland) was used. The luciferase activity (%) of the test compounds (1 to 30 μmol/L) was calculated when the luciferase activity of rosiglitazone (3 to 10 μmol/L) is 100% and the luciferase activity in the absence of the test compound is 0%. The 50% effective concentration of the test compound (EC50, 50% effect concentration) was calculated by using SAS Preclinical Package Ver5.0 (trade name, manufactured by SAS institute Japan Co., Tokyo, Japan), which is a statistical analysis program.
# human PPARγ2 [3] = biological target: T2, human PPARγ2; experiment: as above; assay type: cell-based; conditions: maximum activity relative to rosiglitazone
SMILES,IC50 [1] [nM],"EC50 (human PPARγ2 [2]; COS7 cells, read-out: EC50) [nM]",Emax (human PPARγ2 [2]) [%],maximum activity compared with that of termisartan (human PPARγ2 [3]),"EC50 (human PPARγ2 [2]; EC50, COS7 cells) [nM]"
"CCCCc1nc(C)n(-c2ccccn2)c(=O)c1Cc1cc(CCC)c(OC(C(=O)O)c2ccccc2)c(CCC)c1 (stereo not drawn) [Example 1, 2-[4-[{4-butyl-2-methyl-6-oxo-1-(pyridin-2-yl)-1,6-dihydropyrimidin-5-yl}methyl]-2,6-dipropylphenoxy]-2-phenylacetic acid]",530,3070,32,,
CCCCc1nc(C)n(-c2ccccn2)c(=O)c1Cc1cc(CCC)c(OC(C(=O)O)c2ccc(Cl)cc2)c(CCC)c1 (stereo not drawn) [Example 9],,540,47,equal to or more than that of termisartan,
"CCCCc1nc(C)n(-c2ccc(OCc3ccccc3)cc2)c(=O)c1Cc1cc(CCC)c(OC(C(=O)O)c2ccccc2)c(CCC)c1 (stereo not drawn) [Example 12, 2-[4-[[1-{4-(benzyloxy)phenyl}-4-butyl-2-methyl-6-oxo-1,6-dihydropyrimidin-5-yl]methyl]-2,6-dipropylphenoxy]-2-phenyla cetic acid]",,440,57.5,equal to or more than that of termisartan,
CCCCc1nc(C)n(-c2ccc(OC(C)C)cc2)c(=O)c1Cc1cc(CCC)c(OC(C(=O)O)c2ccccc2)c(CCC)c1 (stereo not drawn) [Example 14],,600,63,equal to or more than that of termisartan,
CCCCc1nc(C)n(-c2ncc(OC)cn2)c(=O)c1Cc1cc(CCC)c(OC(C(=O)O)c2ccccc2)c(CCC)c1 (stereo not drawn) [Example 15],92,2710,47.2,equal to or more than that of termisartan,
CCCCc1nc(C)n(-c2ncc(OCC)cn2)c(=O)c1Cc1cc(CCC)c(OC(C(=O)O)c2ccccc2)c(CCC)c1 (stereo not drawn) [Example 20],115,2590,58.6,,
"CCCCc1nc(C)n(Cc2ccccc2)c(=O)c1Cc1cc(CCC)c(OC(C(=O)O)c2ccccc2)c(CCC)c1 (stereo not drawn) [Example 28, 2-[4-{(1-benzyl-4-butyl-2-methyl-6-oxo-1,6-dihydropyrimidin-5-yl)methyl}-2,6-dipropylphenoxy]-2-phenylacetic acid]",724,850,21.3,,
"CCCCc1nc(C)n(CC2CCCCC2)c(=O)c1Cc1cc(CCC)c(OC(C(=O)O)c2ccccc2)c(CCC)c1 (stereo not drawn) [Example 30, 2-[4-[(4-butyl-1-(cyclohexylmethyl)-2-methyl-6-oxo-1,6-dihydropyrimidin-5-yl}methyl]-2,6-dipropylphenoxy]-2-phenylacet ic acid]",836,280,28.5,,
"CCCCc1nc(C)n(CCOC)c(=O)c1Cc1cc(CCC)c(OC(C(=O)O)c2ccccc2)c(CCC)c1 (stereo not drawn) [Example 33, 2-[4-[{4-butyl-1-(2-methoxyethyl)-2-methyl-6-oxo-1,6-dihydropyrimidin-5-yl}methyl]-2,6-dipropylphenoxy]-2-phenylacetic acid]",250,2670,,,
"CCCc1nc2c(C)cc(-c3nc4ccccc4n3C)cc2n1Cc1ccc(-c2ccccc2C(=O)O)cc1 [telmisartan, reference compound]",25,,30 to 50,,1000 to 5000
